Values quoted from earlier work, collected in US9763453B2, “Antimicrobial coating for inhibition of bacterial adhesion and biofilm formation” (Bacterin International, Inc., priority 2004, dated 2017).

Settings: aqueous solutions

## [Ag][I] [silver iodide]
  Ksp: ~10^−18
